Where a name gives a salt, the structure may show the parent alone.

In turn, `O=C1CCC(NCc2cc(Cl)cc(Cl)c2)C(=O)N1` (racemic) (as salt: hydrochloride) [Example 2.17, 3-(3,5-dichlorobenzylamino) piperidine-2,6-dione] showed a melting point of 234 to 238 °C. `O=C1CCC(NCc2cc(C(F)(F)F)cc(C(F)(F)F)c2)C(=O)N1` (racemic) (as salt: hydrochloride) [Example 2.34, 3-[3,5-bis(trifluoromethyl)benzylamino]piperidine-2,6-dione] registered a melting point of 263 to 265 °C. Next, `COc1cccc(CNC2CCC(=O)NC2=O)c1` (racemic) (as salt: hydrochloride) [Example 2.41, 3-(3-methoxybenzylamino) piperidine-2,6-dione]: 217 to 219 °C. Regarding `O=C1CCC(NCc2cccc(F)c2)C(=O)N1` (racemic) (as salt: hydrochloride) [Example 2.19, 3-(3-fluorobenzylamino) piperidine-2,6-dione], the melting point fell in the range of 231 to 235 °C. Under `O=C1CCC(NCc2ccc3ccccc3c2)C(=O)N1` (racemic) [Example 2.12, 3-[(naphth-2-ylmethyl)amino]piperidine-2,6-dione] stands 120 to 125 °C (dec.); under `O=C1CCC(CNc2ccc(C(c3ccccc3)(c3ccccc3)c3ccccc3)cc2)C(=O)N1` (stereo not shown) [Example 11.6, 3-[(4-tritylphenylamino)methyl]piperidine-2,6-dione], 221 to 225 °C; under `Cc1cccc(CNC2CCC(=O)NC2=O)c1` (racemic) (as salt: hydrochloride) [Example 2.20, 3-(3-methylbenzylamino) piperidine-2,6-dione], 240 to 242 °C. Next, `CC(=O)c1ccc(NCC2CCC(=O)NC2=O)cc1` (stereo not shown) [Example 11.16, 3-[(4-acetylphenylamino)methyl]piperidine-2,6-dione]: 160 °C; `Cc1ccccc1CNC1CCC(=O)NC1=O` (racemic) (as salt: hydrochloride) [Example 2.16, 3-(2-methylbenzylamino) piperidine-2,6-dione]: 235 to 240 °C. In turn, `O=C1CCC(CNc2ccc(Br)cc2)C(=O)N1` (stereo not shown) [Example 11.1, 3-[(4-bromophenylamino)methyl]piperidine-2,6-dione] returned a melting point of 149 to 150 °C. The compound `O=C1CCC(NCc2ccc(Cl)cc2)C(=O)N1` (racemic) (as salt: hydrochloride) [Example 2.37, 3-(4-chlorobenzylamino) piperidine-2,6-dione] showed a melting point of 262 to 265 °C. Under `COc1ccc(CNC2CCC(=O)NC2=O)c(OC)c1` (racemic) (as salt: hydrochloride) [Example 2.2, 3-(2,4-dimethoxybenzylamino) piperidine-2,6-dione] stands 214 °C (dec.); under `NC(=O)c1ccccc1CN[C@H]1CCC(=O)NC1=O` (as salt: hydrobromid) [Example 8.3, 2-[(3S)-(2,6-dioxopiperidin-3-ylamino)methyl]benzamide], 155 to 156 °C (dec.); under `O=C1CCC(NCc2cc(F)ccc2F)C(=O)N1` (racemic) (as salt: hydrochloride) [Example 2.4, 3-(2,5-difluorobenzylamino) piperidine-2,6-dione], 208 °C (dec.).

In the case of `O=C1CCC(CNc2cccc(C(=O)c3ccccc3)c2)C(=O)N1` (stereo not shown) [Example 11.17, 3-[(3-benzoylphenylamino)methyl]piperidine-2,6-dione], the melting point was in the range of 152 to 158 °C. As for `O=C1CCC(NCc2cccc(F)c2F)C(=O)N1` (racemic) (as salt: hydrochloride) [Example 2.7, 3-(2,3-difluorobenzylamino) piperidine-2,6-dione], the melting point was 206 to 212 °C (dec.).

Take `O=C1CCC(CNc2ccc(-c3ccccc3)cc2)C(=O)N1` (stereo not shown) [Example 11.4, 3-(biphenyl-4-ylaminomethyl) piperidine-2,6-dione]: the melting point lay within 135 to 138 °C. Next, `O=C1CCC(NCc2cccc(Cl)c2Cl)C(=O)N1` (racemic) (as salt: hydrochloride) [Example 2.32, 3-(2,3-dichlorobenzylamino) piperidine-2,6-dione]: 246 to 248 °C; `O=C1CCC(NCc2ccccc2C(F)(F)F)C(=O)N1` (racemic) (as salt: hydrochloride) [Example 2.1, 3-(2-trifluoromethylbenzylamino) piperidine-2,6-dione]: > 250 °C (dec.). Next, `O=C1CCC(NCc2cccc(Br)c2)C(=O)N1` (racemic) (as salt: hydrochloride) [Example 2.35, 3-(3-bromobenzylamino) piperidine-2,6-dione]: 229 to 232 °C.

The compound `CN(Cc1cccc2ccccc12)C1CCC(=O)NC1=O` (racemic) [Example 4.5, 3-(methylnaphth-1-ylmethylamino) piperidine-2,6-dione] returned a melting point of 157 to 162 °C. Consider `O=C1CCC(NCc2cccc(OC(F)(F)F)c2)C(=O)N1` (racemic) (as salt: hydrochloride) [Example 2.11, 3-(3-trifluoromethoxybenzylamino) piperidine-2,6-dione], for which the melting point is 199 to 201 °C. Under `O=C1CCC(NCc2ccc(F)cc2)C(=O)N1` (racemic) (as salt: hydrochloride) [Example 2.23, 3-(4-fluorobenzylamino) piperidine-2,6-dione] stands 241 to 242 °C; under `O=C1CCC(NCc2ccc(Cl)cc2Cl)C(=O)N1` (racemic) (as salt: hydrochloride) [Example 2.28, 3-(2,4-dichlorobenzylamino) piperidine-2,6-dione], 240 to 242 °C. Next, `NC(=O)c1ccccc1NCC1CCC(=O)NC1=O` (stereo not shown) [Example 11.15, 2-[(2,6-dioxopiperidin-3-ylmethyl)amino]benzamide]: 203 to 206 °C; `O=C1CC[C@H](NCc2ccccc2C(=O)Nc2ccccc2)C(=O)N1` (as salt: hydrobromid) [Example 8.7, 2-[(3S)-(2,6-dioxopiperidin-3-ylamino)methyl]-N-phenylbenzamide]: 136 to 138 °C; `NC(=O)c1ccccc1CN[C@@H]1CCC(=O)NC1=O` (as salt: hydrobromid) [Example 8.12, 2-[(3R)-(2,6-dioxopiperidin-3-ylamino)methyl]benzamide]: 232 to 233 °C. Next, `CN(CC1CCC(=O)NC1=O)c1ccccc1` (stereo not shown) [Example 11.10, 3-[(N-methyl-N-phenylamino)methyl]piperidine-2,6-dione]: 132 to 134 °C. On to `CC(=O)c1cccc(NCC2CCC(=O)NC2=O)c1` (stereo not shown) [Example 11.9, 3-[(3-acetylphenylamino)methyl]piperidine-2,6-dione], for which the melting point was 129 to 132 °C. The compound `O=C1CCC(NCc2ccccc2F)C(=O)N1` (racemic) (as salt: hydrochloride) [Example 2.29, 3-(2-fluorobenzylamino) piperidine-2,6-dione] gave a melting point of 245 to 247 °C. Next, `O=C1CCC(NCc2cc(Cl)ccc2Cl)C(=O)N1` (racemic) (as salt: hydrochloride) [Example 2.40, 3-(2,5-dichlorobenzylamino) piperidine-2,6-dione]: 242 to 246 °C; `Cc1cccc(Cl)c1CNC1CCC(=O)NC1=O` (racemic) (as salt: hydrochloride) [Example 2.15, 3-(2-chloro-6-methylbenzylamino) piperidine-2,6-dione]: 238 to 240 °C. Next, `O=C1CCC(CNc2cccc3ccccc23)C(=O)N1` (stereo not shown) [Example 11.3, 3-(naphth-1-ylaminomethyl) piperidine-2,6-dione]: 145 to 148 °C; `O=C1CCC(NCc2ccc(Cl)c(Cl)c2)C(=O)N1` (racemic) (as salt: hydrochloride) [Example 2.33, 3-(3,4-dichlorobenzylamino) piperidine-2,6-dione]: 252 to 254 °C. As to `CCOc1ccccc1CNC1CCC(=O)NC1=O` (racemic) (as salt: hydrochloride) [Example 2.39, 3-(2-ethoxybenzylamino) piperidine-2,6-dione], the melting point was in the range of 208 to 212 °C. `O=C1CCC(NCc2ccccc2Br)C(=O)N1` (racemic) (as salt: hydrochloride) [Example 2.30, 3-(2-bromobenzylamino) piperidine-2,6-dione] returned a melting point of 244 to 246 °C.

`O=C1CCC(CNc2cccc(C(F)(F)F)c2)C(=O)N1` (stereo not shown) [Example 11.2, 3-[(3-trifluoromethylphenylamino)methyl]piperidine-2,6-dione] showed a melting point of 135 to 138 °C. `O=C1CCC(NCc2cccc(Cl)c2)C(=O)N1` (racemic) (as salt: hydrochloride) [Example 2.26, 3-(3-chlorobenzylamino) piperidine-2,6-dione] returned a melting point of 237 to 238 °C.

With `O=C1CCC(NCc2c(F)cccc2F)C(=O)N1` (racemic) (as salt: hydrochloride) [Example 2.3, 3-(2,6-difluorobenzylamino) piperidine-2,6-dione], the melting point was 208 to 215 °C (dec.). Turning to `COc1ccc(NCC2CCC(=O)NC2=O)cc1` (stereo not shown) [Example 11.13, 3-[(4-methoxyphenylamino)methyl]piperidine-2,6-dione], the melting point fell in the range of 131 to 134 °C. Under `Cc1ccc(CNC2CCC(=O)NC2=O)cc1` (racemic) (as salt: hydrochloride) [Example 2.38, 3-(4-methylbenzylamino) piperidine-2,6-dione] stands 256 °C (dec.). Under `O=C1CCC(NCc2ccc(OC(F)(F)F)cc2)C(=O)N1` (racemic) (as salt: hydrochloride) [Example 2.36, 3-(4-trifluoromethoxybenzylamino) piperidine-2,6-dione] stands 253 to 255 °C. Under `O=C1CCC(NCc2ccc(C(F)(F)F)cc2)C(=O)N1` (racemic) (as salt: hydrochloride) [Example 2.21, 3-(4-trifluoromethylbenzylamino) piperidine-2,6-dione] stands 252 to 255 °C.

Source of the values: patent US6656937B2, “Substituted glutarimides and their use as inhibitors of IL-12 production” (Gruenenthal, GmbH, priority 2000, dated 2003).
